# Laboratory results taken from ChEMBL document CHEMBL5584304, “Unlocking the Potential of Glutinol: Structural Diversification and Antifungal Activity against Phytopathogenic Fusarium Strains” (2024).
# System: Fusarium solani
# Assay: Antifungal activity against Fusarium solani measured after 24 to 48 hrs by turbidimetry
# Format: functional
# Details: time 24-48 hrs
row,SMILES,MIC
1,CC1(C)CC[C@]2(C)CC[C@]3(C)[C@H]4CC=C5C(=CC(=O)C(=O)C5(C)C)[C@]4(C)CC[C@@]3(C)[C@@H]2C1,114 µM
2,CC1(C)CC[C@]2(C)CC[C@]3(C)[C@H]4C=CC5=C(C=CC(=O)C5(C)C)[C@]4(C)CC[C@@]3(C)[C@@H]2C1,> 50 µg/mL
3,CC1(C)CC[C@]2(C)CC[C@]3(C)[C@H]4CC=C5C(=Cc6n[nH]c(=S)nc6C5(C)C)[C@]4(C)CC[C@@]3(C)[C@@H]2C1,25.4 µM
4,CC1(C)CC[C@]2(C)CC[C@]3(C)[C@H]4CC=C5[C@@H](CC(Br)C(=O)C5(C)C)[C@]4(C)CC[C@@]3(C)[C@@H]2C1 (some centres undefined),> 50 µg/mL
5,CC(=O)O[C@H]1CC[C@@H]([C@]2(C)CC[C@@]3(C)[C@@H]4CC(C)(C)CC[C@]4(C)CC[C@]3(C)[C@H]2CC=O)C(=O)C1(C)C,49.9 µM
6,CC1(C)CC[C@]2(C)CC[C@]3(C)[C@H]4CC=C5C(=CC6=NC(N)=N[C@]6(O)C5(C)C)[C@]4(C)CC[C@@]3(C)[C@@H]2C1,> 50 µg/mL
7,Cc1cc2c(c(C)c1O)CC[C@H]1[C@@]2(C)CC[C@@]2(C)[C@@H]3CC(C)(C)CC[C@]3(C)CC[C@]12C,> 50 µg/mL
8,CC1(C)CC[C@]2(C)CC[C@]3(C)[C@H]4CC=C5C(=Cc6nc7ccccc7nc6C5(C)C)[C@]4(C)CC[C@@]3(C)[C@@H]2C1,> 50 µg/mL
9,COC(=O)Nc1nc2ccccc2[nH]1 [CARBENDAZIM],4.09 µM
10,N#Cc1c[nH]cc1-c1cccc2c1OC(F)(F)O2 [FLUDIOXONIL],12.6 µM
11,CC1(C)CC[C@]2(C)CC[C@]3(C)[C@H]4CC=C5[C@@H](CC[C@H](O)C5(C)C)[C@]4(C)CC[C@@]3(C)[C@@H]2C1 [GLUTINOL],> 50 µg/mL
12,CC1(C)CC[C@]2(C)CC[C@]3(C)[C@H]4CC=C5[C@@H](CCC(=O)C5(C)C)[C@]4(C)CC[C@@]3(C)[C@@H]2C1 [GLUTINONE],> 50 µg/mL
13,COC(=O)N(OC)c1ccccc1COc1ccn(-c2ccc(Cl)cc2)n1 [PYRACLOSTROBIN],1.42 µM

# System: Fusarium tucumaniae
# Assay: Antifungal activity against Fusarium tucumaniae measured after 24 to 48 hrs by turbidimetry
# Format: functional
# Details: time 24-48 hrs
row,SMILES,MIC
1,CC1(C)CC[C@]2(C)CC[C@]3(C)[C@H]4CC=C5C(=CC(=O)C(=O)C5(C)C)[C@]4(C)CC[C@@]3(C)[C@@H]2C1,> 50 µg/mL
2,CC1(C)CC[C@]2(C)CC[C@]3(C)[C@H]4C=CC5=C(C=CC(=O)C5(C)C)[C@]4(C)CC[C@@]3(C)[C@@H]2C1,119 µM
3,CC1(C)CC[C@]2(C)CC[C@]3(C)[C@H]4CC=C5C(=Cc6n[nH]c(=S)nc6C5(C)C)[C@]4(C)CC[C@@]3(C)[C@@H]2C1,102 µM
4,CC1(C)CC[C@]2(C)CC[C@]3(C)[C@H]4CC=C5[C@@H](CC(Br)C(=O)C5(C)C)[C@]4(C)CC[C@@]3(C)[C@@H]2C1 (some centres undefined),> 50 µg/mL
5,CC(=O)O[C@H]1CC[C@@H]([C@]2(C)CC[C@@]3(C)[C@@H]4CC(C)(C)CC[C@]4(C)CC[C@]3(C)[C@H]2CC=O)C(=O)C1(C)C,49.9 µM
6,CC1(C)CC[C@]2(C)CC[C@]3(C)[C@H]4CC=C5C(=CC6=NC(N)=N[C@]6(O)C5(C)C)[C@]4(C)CC[C@@]3(C)[C@@H]2C1,108 µM
7,Cc1cc2c(c(C)c1O)CC[C@H]1[C@@]2(C)CC[C@@]2(C)[C@@H]3CC(C)(C)CC[C@]3(C)CC[C@]12C,118 µM
8,CC1(C)CC[C@]2(C)CC[C@]3(C)[C@H]4CC=C5C(=Cc6nc7ccccc7nc6C5(C)C)[C@]4(C)CC[C@@]3(C)[C@@H]2C1,98.2 µM
9,COC(=O)Nc1nc2ccccc2[nH]1 [CARBENDAZIM],4.09 µM
10,N#Cc1c[nH]cc1-c1cccc2c1OC(F)(F)O2 [FLUDIOXONIL],17.8 µM
11,CC1(C)CC[C@]2(C)CC[C@]3(C)[C@H]4CC=C5[C@@H](CC[C@H](O)C5(C)C)[C@]4(C)CC[C@@]3(C)[C@@H]2C1 [GLUTINOL],117 µM
12,CC1(C)CC[C@]2(C)CC[C@]3(C)[C@H]4CC=C5[C@@H](CCC(=O)C5(C)C)[C@]4(C)CC[C@@]3(C)[C@@H]2C1 [GLUTINONE],118 µM
13,COC(=O)N(OC)c1ccccc1COc1ccn(-c2ccc(Cl)cc2)n1 [PYRACLOSTROBIN],1.01 µM

# System: Fusarium graminearum
# Assay: Antifungal activity against Fusarium graminearum measured after 24 to 48 hrs by turbidimetry
# Format: functional
# Details: time 24-48 hrs
row,SMILES,MIC
1,CC1(C)CC[C@]2(C)CC[C@]3(C)[C@H]4CC=C5C(=CC(=O)C(=O)C5(C)C)[C@]4(C)CC[C@@]3(C)[C@@H]2C1,> 50 µg/mL
2,CC1(C)CC[C@]2(C)CC[C@]3(C)[C@H]4C=CC5=C(C=CC(=O)C5(C)C)[C@]4(C)CC[C@@]3(C)[C@@H]2C1,> 50 µg/mL
3,CC1(C)CC[C@]2(C)CC[C@]3(C)[C@H]4CC=C5C(=Cc6n[nH]c(=S)nc6C5(C)C)[C@]4(C)CC[C@@]3(C)[C@@H]2C1,50.8 µM
4,CC1(C)CC[C@]2(C)CC[C@]3(C)[C@H]4CC=C5[C@@H](CC(Br)C(=O)C5(C)C)[C@]4(C)CC[C@@]3(C)[C@@H]2C1 (some centres undefined),> 50 µg/mL
5,CC(=O)O[C@H]1CC[C@@H]([C@]2(C)CC[C@@]3(C)[C@@H]4CC(C)(C)CC[C@]4(C)CC[C@]3(C)[C@H]2CC=O)C(=O)C1(C)C,99.8 µM
6,CC1(C)CC[C@]2(C)CC[C@]3(C)[C@H]4CC=C5C(=CC6=NC(N)=N[C@]6(O)C5(C)C)[C@]4(C)CC[C@@]3(C)[C@@H]2C1,> 50 µg/mL
7,Cc1cc2c(c(C)c1O)CC[C@H]1[C@@]2(C)CC[C@@]2(C)[C@@H]3CC(C)(C)CC[C@]3(C)CC[C@]12C,> 50 µg/mL
8,CC1(C)CC[C@]2(C)CC[C@]3(C)[C@H]4CC=C5C(=Cc6nc7ccccc7nc6C5(C)C)[C@]4(C)CC[C@@]3(C)[C@@H]2C1,> 50 µg/mL
9,COC(=O)Nc1nc2ccccc2[nH]1 [CARBENDAZIM],8.18 µM
10,N#Cc1c[nH]cc1-c1cccc2c1OC(F)(F)O2 [FLUDIOXONIL],17.8 µM
11,CC1(C)CC[C@]2(C)CC[C@]3(C)[C@H]4CC=C5[C@@H](CC[C@H](O)C5(C)C)[C@]4(C)CC[C@@]3(C)[C@@H]2C1 [GLUTINOL],> 50 µg/mL
12,CC1(C)CC[C@]2(C)CC[C@]3(C)[C@H]4CC=C5[C@@H](CCC(=O)C5(C)C)[C@]4(C)CC[C@@]3(C)[C@@H]2C1 [GLUTINONE],118 µM
13,COC(=O)N(OC)c1ccccc1COc1ccn(-c2ccc(Cl)cc2)n1 [PYRACLOSTROBIN],1.01 µM
